Where two headings read alike, the source gives them in different places.
Assays:
[1] = target: T1, PARP7 (Homo sapiens, UniProt Q7Z3E1); assay: PARP7 TR-FRET assay (binding, displacement of biotinylated Probe A); settings: 6 nM PARP7, 2 nM Probe A, 25° C., 30 min
T1 sequence (Q7Z3E1 1-657): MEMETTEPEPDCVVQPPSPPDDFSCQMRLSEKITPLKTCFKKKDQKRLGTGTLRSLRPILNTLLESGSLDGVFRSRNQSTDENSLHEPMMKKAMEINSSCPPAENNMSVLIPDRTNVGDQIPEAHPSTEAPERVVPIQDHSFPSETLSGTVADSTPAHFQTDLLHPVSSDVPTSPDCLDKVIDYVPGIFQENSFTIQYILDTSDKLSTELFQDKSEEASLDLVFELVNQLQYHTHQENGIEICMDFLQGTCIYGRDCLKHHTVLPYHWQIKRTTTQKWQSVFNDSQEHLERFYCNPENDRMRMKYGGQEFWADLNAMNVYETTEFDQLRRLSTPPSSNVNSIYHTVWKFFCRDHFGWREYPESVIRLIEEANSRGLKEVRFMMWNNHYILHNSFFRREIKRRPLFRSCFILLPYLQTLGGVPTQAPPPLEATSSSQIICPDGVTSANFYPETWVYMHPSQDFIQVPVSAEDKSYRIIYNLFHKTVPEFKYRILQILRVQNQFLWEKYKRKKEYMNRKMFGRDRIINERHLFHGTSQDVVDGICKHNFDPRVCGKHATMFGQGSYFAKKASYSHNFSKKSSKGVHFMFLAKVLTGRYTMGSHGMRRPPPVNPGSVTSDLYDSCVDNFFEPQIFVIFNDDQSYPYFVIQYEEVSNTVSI
Summary of the method: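 His-tagged PARP7 at 6 nM was preincubated with compound and 2 nM biotinylated Probe A for 30 min at 25° C (HEPES pH 8.0, NaCl, BSA, DTT, Tween20). Europium-streptavidin/ULight-anti-His FRET was read as the 665/615 nm ratio after a further 30 min. IC50 was fitted from % inhibition normalised to vehicle and blank.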

[2] = test system: NCI-H1373 cells; assay: Inhibition of cancer cell growth in NCI-H1373 cells (Cell-titer Glo, 6 days); type: cell-based; settings: read-out: H1373 Cell Proliferation IC50
Procedure: Biological Assay Example B: Inhibition of cancer cell growth in NCI-H1373 cells by PARP7 inhibitors
NCI-H1373 cells were cultured in RPMI 1640 medium supplemented with 10% fetal bovine serum, 100 U/mL penicillin and 100 ug/mL streptomycin in a 37° C., 5% CO2 incubator. Fifteen hundred cells were seeded into each well of 96-well plate in RPMI1640 medium containing 10% fetal bovine serum and incubated overnight. Serial diluted compounds for each well were added at a final DMSO concentration of 0.5% and a day zero plate was collected for analysis. Compounds were incubated with the cells for 6 days. Cell growth was assessed using Cell-titer Glo reagent (Promega #G^7572). The luminescence signal was collected on Tecan Spark plate reader. Cell growth is determined by correcting for the cell count on day zero. Inhibition rate is calculated with the formula of % inhibition=100*(DMSO control-compounds)/(DMSO control-Blank). Cell growth inhibition IC50 is calculated with the equation of Y-Bottom+ (Top-Bottom)/(1+10^((LogIC50−X) *Hill Slope)).

| Compound | IC50 [1] [nM] | IC50 ([2]; Homo sapiens, NCI-H1373, 144 h) [nM] | IC50 [2] [nM] |
| --- | --- | --- | --- |
| O=C(COC1CCNc2c1n[nH]c(=O)c2C(F)(F)F)N1CCN(c2ncc(C(F)(F)F)cn2)CC1 (racemic) [Compound 1] | < 100 | 100 to 1000 |  |
| O=C(CO[C@@H]1CCNc2c1n[nH]c(=O)c2C(F)(F)F)N1CCN(c2ncc(C(F)(F)F)cn2)CC1 (single isomer, unassigned) [Compound 2] | < 100 | < 100 |  |
| O=C(COC1CCOc2c1n[nH]c(=O)c2Br)N1CCN(c2ncc(C(F)(F)F)cn2)CC1 (single isomer, unassigned) [Compound 8] | < 100 | 100 to 1000 |  |
| CN1C[C@@H](OCC(=O)N2CCN(c3ncc(C(F)(F)F)cn3)CC2)c2n[nH]c(=O)c3cc(F)cc1c23 (single isomer, unassigned) [Compound 14] | < 100 | < 100 |  |
| O=C(CC1CN(c2cc(C(F)(F)F)c(=O)[nH]n2)CCO1)N1CCN(c2ncc(C(F)(F)F)cn2)CC1 (single isomer, unassigned) [Compound 32] | < 100 | 100 to 1000 |  |
| Cc1c(N2CCOC(CC(=O)N3CCN(c4ncc(C(F)(F)F)cn4)CC3)C2)n[nH]c(=O)c1C(F)(F)F (single isomer, unassigned) [Compound 39] | < 100 | 100 to 1000 |  |
| Cc1c(N2C[C@H](CC(=O)N3CCN(c4ncc(C(F)(F)F)cn4)CC3)O[C@@H](C)C2)n[nH]c(=O)c1C(F)(F)F (single isomer, unassigned) [Compound 42] | < 100 | > 1000 |  |
| Cc1c(N2C[C@@H](CC(=O)N3CCN(c4ncc(C(F)(F)F)cn4)CC3)O[C@H](C)C2)n[nH]c(=O)c1C(F)(F)F (single isomer, unassigned) [Compound 43] | < 100 | 100 to 1000 |  |
| O=C(CC1CN(c2n[nH]c(=O)c3cc(F)ccc23)CCO1)N1CCN(c2ncc(C(F)(F)F)cn2)CC1 (single isomer, unassigned) [Compound 50] | < 100 | 100 to 1000 |  |
| O=C(COC1CCOc2c1n[nH]c(=O)c2Cl)N1CCN(c2ncc(C(F)(F)F)cn2)CC1 (single isomer, unassigned) [Compound 53] | < 100 | > 1000 |  |
| O=C(COC1CCOc2c1n[nH]c(=O)c2Cl)N1CCN(c2ncc(C(F)(F)F)cn2)CC1 (single isomer, unassigned) [Compound 54] | < 100 |  | > 1000 |
| O=C(CC1CN(c2n[nH]c(=O)c3ccccc23)CCO1)N1CCN(c2ncc(C(F)(F)F)cn2)CC1 (single isomer, unassigned) [Compound 92] | < 100 | 100 to 1000 |  |
| Cc1cccc2c(N3CCOC(CC(=O)N4CCN(c5ncc(C(F)(F)F)cn5)CC4)C3)n[nH]c(=O)c12 (single isomer, unassigned) [Compound 101] | 100 to 1000 | > 1000 |  |
| O=C(COC1CCOc2c1n[nH]c(=O)c2C(F)F)N1CCN(c2ncc(C(F)(F)F)cn2)CC1 (single isomer, unassigned) [Compound 114] | > 1000 | > 1000 |  |
| Cc1ccc2c(=O)[nH]nc(N3CCOC(CC(=O)N4CCN(c5ncc(C(F)(F)F)cn5)CC4)C3)c2c1 (single isomer, unassigned) [Compound 123] | < 100 | > 1000 |  |
| N#Cc1cnc(N2CCN(C(=O)CC3CN(c4cc(C(F)(F)F)c(=O)[nH]n4)c4cc(C(F)F)ccc4O3)CC2)nc1 (single isomer, unassigned) [Compound 138] | < 100 |  | < 100 |
| N#Cc1cnc(N2CCN(C(=O)CC3CN(c4cc(C(F)(F)F)c(=O)[nH]n4)c4cc(C(F)F)ccc4O3)CC2)nc1 (single isomer, unassigned) [Compound 140] | < 100 |  | > 1000 |
| O=C(CC1CN(c2cc(C(F)(F)F)c(=O)[nH]n2)c2cc(C(F)F)ccc2O1)N1CCN(c2cnc(C(F)(F)F)cn2)CC1 (single isomer, unassigned) [Compound 145] | < 100 | < 100 |  |
| N#Cc1ccc2c(c1)N(c1cc(C(F)(F)F)c(=O)[nH]n1)CC(CC(=O)N1CCN(c3ncc(Cl)cn3)CC1)O2 (single isomer, unassigned) [Compound 216] | < 100 | < 100 |  |

| Compound | IC50 [1] [nM] | IC50 ([2]; Homo sapiens, NCI-H1373, 144 h) [nM] | IC50 [2] [nM] |
| --- | --- | --- | --- |
| COCc1ccc2c(c1)N(c1cc(C(F)(F)F)c(=O)[nH]n1)CC(CC(=O)N1CCN(c3ncc(C(F)(F)F)cn3)CC1)O2 (single isomer, unassigned) [Compound 266] | < 100 | < 100 |  |
| O=C(CC1CN(c2cc(C(F)(F)F)c(=O)[nH]n2)c2cc(F)ccc2O1)N1CCN(c2cnc(C(F)(F)F)cn2)CC1 (single isomer, unassigned) [Compound 291] | < 100 | 100 to 1000 |  |
| O=C(CC1CN(c2cc(C(F)(F)F)c(=O)[nH]n2)c2cc(F)ccc2O1)N1CCN(c2ccc(C3CC3)cn2)CC1 (single isomer, unassigned) [Compound 300] | < 100 | 100 to 1000 |  |
| COCCNC(=O)c1ccc2c(c1)N(c1cc(C(F)(F)F)c(=O)[nH]n1)CC(CC(=O)N1CCN(c3ncc(C(F)(F)F)cn3)CC1)O2 (single isomer, unassigned) [Compound 309] | < 100 | 100 to 1000 |  |
| N#Cc1ccc2c(c1)N(c1cc(C(F)(F)F)c(=O)[nH]n1)CC(CC(=O)N1CCN(c3ncc(C4CC4)cn3)CC1)O2 (single isomer, unassigned) [Compound 316] | < 100 | < 100 |  |
| CNC(=O)c1ccc2c(c1)N(c1cc(C(F)(F)F)c(=O)[nH]n1)CC(CC(=O)N1CCN(c3ncc(C(F)(F)F)cn3)CC1)O2 (single isomer, unassigned) [Compound 324] | < 100 | > 1000 |  |
| O=C(CC1CN(c2cc(C(F)(F)F)c(=O)[nH]n2)c2cc(C(=O)N3CCC3)ccc2O1)N1CCN(c2ncc(C(F)(F)F)cn2)CC1 (single isomer, unassigned) [Compound 336] | < 100 |  | < 100 |
| O=C(CC1CN(c2cc(C(F)(F)F)c(=O)[nH]n2)c2cc(C(=O)N3CCC3)ccc2O1)N1CCN(c2ncc(C(F)(F)F)cn2)CC1 (single isomer, unassigned) [Compound 337] | < 100 |  | > 1000 |
| N#Cc1ccc2c(c1)N(c1cc(C(F)(F)F)c(=O)[nH]n1)CC(CC(=O)N1CCN(c3ccc(C(F)(F)F)cn3)CC1)O2 (single isomer, unassigned) [Compound 346] | < 100 | > 1000 |  |
| Cc1c(N2C[C@@H](CC(=O)N3CCN(c4ncc(C(F)(F)F)cn4)CC3)O[C@@H](C)C2)n[nH]c(=O)c1C(F)(F)F (stereo in doubt) [Compound 40] | < 100 | 100 to 1000 |  |
| Cc1c(Oc2cccc(C(=O)N3CCN(c4ncc(C(F)(F)F)cn4)CC3)c2)n[nH]c(=O)c1C(F)(F)F [Compound 15] | < 100 | 100 to 1000 |  |
| O=C(c1cccc(Oc2cc(C(F)(F)F)c(=O)[nH]n2)c1)N1CCN(c2ncc(C(F)(F)F)cn2)CC1 [Compound 16] | < 100 | > 1000 |  |
| Cc1c(Oc2ccnc(C(=O)N3CCN(c4ncc(C(F)(F)F)cn4)CC3)c2)n[nH]c(=O)c1C(F)(F)F [Compound 21] | < 100 | 100 to 1000 |  |
| Cc1c(Oc2ccc(Cl)c(C(=O)N3CCN(c4ncc(C(F)(F)F)cn4)CC3)c2)n[nH]c(=O)c1C(F)(F)F [Compound 26] | < 100 | > 1000 |  |
| C[C@@H]1CN(C(=O)c2cccc(Oc3n[nH]c(=O)c(C(F)(F)F)c3N3CC4(C3)CC(F)(F)C4)c2)CCN1c1ncc(C#N)cn1 [Compound 341] | < 100 |  |  |
| COC1CN(c2c(Oc3ccnc(C(=O)N4CCN(c5ncc(C(F)(F)F)cn5)[C@H](C)C4)c3)n[nH]c(=O)c2C(F)(F)F)C1 [Compound 342] | < 100 |  |  |
| O=C(CC1CN(c2cc(C(F)(F)F)c(=O)[nH]n2)c2ccncc2O1)N1CCN(c2ncc(C(F)(F)F)cn2)CC1 (centres unmarked) [Compound 347] | < 100 |  |  |
| C[C@@H]1CN(C(=O)c2cccc(Oc3n[nH]c(=O)c(C(F)(F)F)c3N3CC(C#N)C3)c2)CCN1c1ncc(C(F)(F)F)cn1 [Compound 350] | < 100 |  |  |
| C[C@@H]1CN(C(=O)c2cc(Oc3n[nH]c(=O)c(C(F)(F)F)c3N3CC4(CCC4)C3)ccn2)CCN1c1ncc(C(F)(F)F)cn1 [Compound 352] | < 100 |  |  |
